According to patent publication US10597403B2, “Condensed cyclic compound, composition including the condensed cyclic compound, organic light-emitting device including the condensed cyclic compound, and method of manufacturing the organic light-emitting device” (SAMSUNG ELECTRONICS CO., LTD., priority 2015, dated 2020):

What was measured:
[1] = Measurement of solubility in xylene; format: physicochemical; settings: for solubility: result in words; for solubility / Solubility (xylene): solvent xylene
Procedure: (§1) The glass transition temperature (Tg) and solubility of Compounds 1-5, 1-23, 1-24, and 1-79 were measured. In measuring the solubility, xylene was used as a solvent. The glass transition temperature (Tg) and solubility of each compound is written under each compound number.

[2] = Measurement of glass transition temperature (Tg), scanning calorimetry, JIS K 7121, SII DSC6220; format: physicochemical; settings: for heat resistance: result in words, from Tg
Procedure: The glass transition temperature may be measured by a method defined in JIS K 7121 or ISO 3146 corresponding thereto. In the following examples, the glass transition temperature was measured by a scanning calorimetric measurement method.
In an argon atmosphere, 2.20 g (5.52 mmol) of Intermediate a, 3.30 g (4.97 mmol) of Intermediate b, 0.078 g (0.11 mmol) of dichlorobis(triphenylphosphine)dipalladium, 55 mL of dioxane, and 28 mL of a 0.5 N sodium carbonate aqueous solution were added to a reaction vessel, and the mixture was stirred at a temperature of 90° C. for 8 hours. After the reaction was completed, the resultant mixture was cooled to room temperature and filtered by using celite. An organic layer obtained therefrom was concentrated and purified by column chromatography, thereby completing the preparation of Compound 1-7 (synthesized amount: 2.97 g, yield: 69.9%) (the structure thereof was identified by LC-MS). A measurement of a glass transition temperature (Tg) was performed based on JIS K 7121 by using SII DSC6220 (manufactured by Seiko Instruments Inc.).
as §1

Row | SMILES | solubility [1] | heat resistance [2] | Solubility (xylene) [1] [wt %] | soluble in a hydrocarbon-based solvent ([1]; toluene or xylene) | Tg (glass transition temperature) ([2]; JIS K 7121, SII DSC6220) [°C]
1 | c1ccc(-c2cc(-c3ccccc3)cc(-c3cccc(-c4cc(-c5ccccc5)nc(-c5cccc(-c6cccc7c6c6cc(-c8ccccc8)ccc6n7-c6ccccc6)c5)n4)c3)c2)cc1 [Compound 1-5] | excellent | excellent |  |  | 
2 | c1ccc(-c2cc(-c3ccccc3)cc(-c3cccc(-c4nc(-c5ccccc5)nc(-c5cccc(-c6cccc7c6c6cc(-c8ccccc8)ccc6n7-c6ccccc6)c5)n4)c3)c2)cc1 [Compound 1-7] |  |  | > 10 | soluble | 
3 | c1ccc(-c2cc(-c3ccccc3)cc(-c3cccc(-c4nc(-c5ccccc5)nc(-c5cccc(-c6ccc7c(c6)c6cc(-c8ccccc8)ccc6n7-c6ccccc6)c5)n4)c3)c2)cc1 [Compound 1-79] | excellent | excellent |  |  | 
4 | c1ccc(-c2cc(-c3ccccc3)cc(-c3cccc(-n4c5ccccc5c5cc(-c6ccc7c(c6)c6cc(-c8ccccc8)ccc6n7-c6ccccc6)ccc54)c3)c2)cc1 [Compound 6-5] |  |  | > 10 |  | 156.6
